The text below walks through data of patent US10913738B2 (BRISTOL-MYERS SQUIBB COMPANY, priority 2017, dated 2021).

Read-outs that look alike come from different tables or passages of the source. Where only a bound is given, the exact number is not on record here.

The subject of assay [1] is MLKL phosphorylation in HT29-L23 human colorectal adenocarcinoma cells. In words: MLKL Phosphorylation High-Content Assay. It counts as cell-based. Conditions: Homo sapiens. The gist of the method: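 IC50 and Ymax obtained by 4-parameter logistic fitting of MLKL phosphorylation, measured as mean circ-ring average intensity ratio from high-content images. Staining used an anti-phospho-S358 MLKL antibody overnight at 4° C., following six-hour cell incubation at 37° C.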

The target in assay [2] is T1, His-GST-TVMV-hRIPK1(1-324) (Homo sapiens, UniProt Q13546).
T1 construct: The coding region of human RIPK1(1-324) flanked by NdeI site at 5′ end; made in house; host or cells: Spodoptera frugiperda (Sf9) insect cells, baculovirus
T1 sequence (Q13546 1-324): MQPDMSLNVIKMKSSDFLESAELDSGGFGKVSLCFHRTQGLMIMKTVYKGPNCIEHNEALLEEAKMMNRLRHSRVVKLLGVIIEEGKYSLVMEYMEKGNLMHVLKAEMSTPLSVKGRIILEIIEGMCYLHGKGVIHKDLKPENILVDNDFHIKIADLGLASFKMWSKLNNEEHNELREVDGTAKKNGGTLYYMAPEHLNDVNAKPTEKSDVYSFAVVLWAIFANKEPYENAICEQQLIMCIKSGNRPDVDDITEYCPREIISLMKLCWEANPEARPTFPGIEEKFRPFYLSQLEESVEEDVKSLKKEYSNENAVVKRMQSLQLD
In words: RIPK1 HTRF Binding Assay. Background: In TR-FRET formats the signal depends on donor and acceptor labels being close together.

[3] abbreviates: x marks IC50 class <20 nM, read-out: pMLKL cell activity <20 nM.
[4] abbreviates: x marks IC50 class <20 nM, read-out: RIPK1 HTRF binding <20 nM.
Setting [5] is: x marks IC50 class 20-200 nM, read-out: pMLKL cell activity 20-200 nM.
[6] abbreviates: x marks IC50 class >200 nM, read-out: pMLKL cell activity >200 nM.
[7] abbreviates: x marks IC50 class 20-200 nM, read-out: RIPK1 HTRF binding 20-200 nM.

`Cc1ncc(-c2ccn3nc(N)nc3c2)cc1C(=O)NCc1c(F)cccc1OC1CCCC1` [Example 247, 5-{2-amino-[1,2,4]triazolo[1,5-a]pyridin-7-yl}-N-{[2-(cyclopentyloxy)-6-fluorophenyl]methyl}-2-methylpyridine-3-carboxamide]: the IC50 in assay [1] (setting [3]) and in assay [2] (setting [4]) was less than 20 nM in each case.

Regarding `Cc1ncc(-c2ccn3nc(N)nc3c2)cc1C(=O)NCc1ccccc1OCC1CCC1` [Example 248, 5-{2-amino-[1,2,4]triazolo[1,5-a]pyridin-7-yl}-N-{[2-(cyclobutylmethoxy)phenyl]methyl}-2-methylpyridine-3-carboxamide], the IC50 in assay [1] (setting [3]) and in assay [2] (setting [4]) was less than 20 nM in each case.

As for `Cc1ncc(-c2ccn3nc(N)nc3c2)cc1C(=O)NCc1ccccc1OC1CCCC1` [Example 249, 5-{2-amino-[1,2,4]triazolo[1,5-a]pyridin-7-yl}-N-{[2-(cyclopentyloxy)phenyl]methyl}-2-methylpyridine-3-carboxamide], the IC50 in assay [1] (setting [3]) and in assay [2] (setting [4]) was less than 20 nM in each case.

For the molecule `Cc1ncc(-c2ccn3nc(N)nc3c2)cc1C(=O)NCc1ccccc1OCC1CC1` [Example 250, 5-{2-amino-[1,2,4]triazolo[1,5-a]pyridin-7-yl}-N-{[2-(cyclopropylmethoxy)phenyl]methyl}-2-methylpyridine-3-carboxamide], the IC50 was 20 to 200 nM in assay [1] (setting [5]) and less than 20 nM in assay [2] (setting [4]).

`[2H]C([2H])(NC(=O)c1cc(-c2ccn3nc(N)nc3c2)cnc1C)c1cc(OC(F)(F)F)ccc1F` [Example 252, 5-{2-amino-[1,2,4]triazolo[1,5-a]pyridin-7-yl}-N-{[2-fluoro-5-(trifluoromethoxy)phenyl](deutero)methyl}-2-methylpyridine-3-carboxamide]: the IC50 in assay [1] (setting [3]) and in assay [2] (setting [4]) was less than 20 nM each time.

As for `[2H]C([2H])(NC(=O)c1cc(-c2ccn3nc(N)nc3c2)cnc1C)c1cc(F)cc(F)c1OCC1CC1` [Example 253, 5-{2-amino-[1,2,4]triazolo[1,5-a]pyridin-7-yl}-N-{[2-(cyclopropylmethoxy)-3,5-difluorophenyl](deutero)methyl}-2-methylpyridine-3-carboxamide], the IC50 in assay [1] (setting [3]) and in assay [2] (setting [4]) was less than 20 nM throughout.

With `Cc1ncc(-c2ccn3nc(N)nc3c2)cc1C(=O)NCc1cc(C(F)(F)F)ccc1Cl` [Example 254], the IC50 in assay [1] (setting [5]) was 20 to 200 nM; in assay [2] (setting [4]), less than 20 nM.

Turning to `Cc1ncc(-c2ccn3nc(N)nc3c2)cc1C(=O)NC(C)c1cc(OC(F)(F)F)ccc1F` (centres unmarked) [Example 255, 5-{2-amino-[1,2,4]triazolo[1,5-a]pyridin-7-yl}-N-{1-[2-fluoro-5-(trifluoromethoxy)phenyl]ethyl}-2-methylpyridine-3-carboxamide], the IC50 in assay [1] (setting [5]) was 20 to 200 nM; in assay [2] (setting [4]), less than 20 nM.

For the molecule `Cc1ncc(C(=O)NCc2cc(OC(F)(F)F)ccc2F)cc1-c1ccn2nc(N)nc2c1` [Example 256, 5-{2-amino-[1,2,4]triazolo[1,5-a]pyridin-7-yl}-N-{[2-fluoro-5-(trifluoromethoxy)phenyl]methyl}-6-methylpyridine-3-carboxamide], the IC50 was greater than 200 nM in assay [1] (setting [6]) and 20 to 200 nM in assay [2] (setting [7]).

As for `Cc1ncc(C(=O)NCc2c(F)cc(F)cc2OCC2CCCC2)cc1-c1ccn2nc(N)nc2c1` [Example 257, 5-{2-amino-[1,2,4]triazolo[1,5-a]pyridin-7-yl}-N{[2-(cyclopentylmethoxy)-4,6-difluorophenyl]methyl}-6-methylpyridine-3-carboxamide], the IC50 is greater than 200 nM in assay [1] (setting [6]) and 20 to 200 nM in assay [2] (setting [7]).

Consider `Cc1ncc(C(=O)NCc2cccnc2OCC2CCCC2)cc1-c1ccn2nc(N)nc2c1` [Example 258, 5-{2-amino-[1,2,4]triazolo[1,5-a]pyridin-7-yl}-N-{[2-(cyclopentylmethoxy)pyridin-3-yl]methyl}-6-methylpyridine-3-carboxamide], for which the IC50 in assay [1] (setting [6]) was greater than 200 nM; in assay [2] (setting [4]), less than 20 nM.

Regarding `Cc1ncc(C(=O)NCc2cc(F)cc(F)c2OCC2CCCC2)cc1-c1ccn2nc(N)nc2c1` [Example 259, 5-{2-amino-[1,2,4]triazolo[1,5-a]pyridin-7-yl}-N-{[2-(cylcopentylmethoxy)-3,5-difluorophenyl]methyl}-6-methylpyridine-3-carboxamide], the IC50 in assay [1] (setting [5]) was 20 to 200 nM; in assay [2] (setting [4]), less than 20 nM.

`Cc1ncc(C(=O)NCc2cc(F)cc(F)c2OCC2CC2)cc1-c1ccn2nc(N)nc2c1` [Example 260, 5-{2-amino-[1,2,4]triazolo[1,5-a]pyridin-7-yl}-N-{[2-(cyclopropylmethoxy)-3,5-difluorophenyl]methyl}-6-methylpyridine-3-carboxamide]: the IC50 in assay [1] (setting [3]) and in assay [2] (setting [4]) was less than 20 nM each time.

Consider `Cc1ncc(C(=O)NCc2cccnc2OCC2CCC2)cc1-c1ccn2nc(N)nc2c1` [Example 261, 5-{2-amino-[1,2,4]triazolo[1,5-a]pyridin-7-yl}-N-{[2-(cyclobutylmethoxy)pyridin-3-yl]methyl}-6-methylpyridine-3-carboxamide], for which the IC50 in assay [1] (setting [6]) was greater than 200 nM; in assay [2] (setting [7]), 20 to 200 nM.

Turning to `Cc1ncc(C(=O)NCc2cc(F)ccc2OCC2CCCC2)cc1-c1ccn2nc(N)nc2c1` [Example 262, 5-{2-amino-[1,2,4]triazolo[1,5-a]pyridin-7-yl}-N-{[2-(cyclopentylmethoxy)-5-fluorophenyl]methyl}-6-methylpyridine-3-carboxamide], the IC50 is 20 to 200 nM in assay [1] (setting [5]) and less than 20 nM in assay [2] (setting [4]).

As to `Cc1ncc(C(=O)NCc2ccccc2OCC2CCCC2)cc1-c1ccn2nc(N)nc2c1` [Example 263, 5-{2-amino-[1,2,4]triazolo[1,5-a]pyridin-7-yl}-N-{[2-(cyclopentylmethoxy)phenyl]methyl}-6-methylpyridine-3-carboxamide], the values for the IC50 in assay [1] (setting [5]) and in assay [2] (setting [4]) were 20 to 200 nM and less than 20 nM, respectively.

`CCOc1ncc(-c2ccn3nc(N)nc3c2)cc1C(=O)NCc1cc(F)ccc1OC1CCCC1` [Example 264, 5-{2-amino-[1,2,4]triazolo[1,5-a]pyridin-7-yl}-N-{[2-(cyclopentyloxy)-5-fluorophenyl]methyl}-2-ethoxypyridine-3-carboxamide]: the IC50 in assay [1] (setting [3]) and in assay [2] (setting [4]) was less than 20 nM in each case.

On to `CCOc1ncc(-c2ccn3nc(N)nc3c2)cc1C(=O)NCc1ccccc1SCC(F)(F)F` [Example 265, 5-{2-amino-[1,2,4]triazolo[1,5-a]pyridin-7-yl}-2-ethoxy-N-({2-[(2,2,2-trifluoroethyl)sulfanyl]phenyl}methyl)pyridine-3-carboxamide], for which the values for the IC50 in assay [1] (setting [6]) and in assay [2] (setting [7]) were greater than 200 nM and 20 to 200 nM, respectively.

Regarding `CCOc1ncc(-c2ccn3nc(N)nc3c2)cc1C(=O)NCc1ccccc1SC(C)C` [Example 266, 5-{2-amino-[1,2,4]triazolo[1,5-a]pyridin-7-yl}-2-ethoxy-N-{[2-(propan-2-ylsulfanyl)phenyl]methyl}pyridine-3-carboxamide], the IC50 in assay [1] (setting [5]) was 20 to 200 nM; in assay [2] (setting [4]), less than 20 nM.

On to `CCOc1ncc(-c2ccn3nc(N)nc3c2)cc1C(=O)NCc1ccccc1OC1CCCC1` [Example 267, 5-{2-amino-[1,2,4]triazolo[1,5-a]pyridin-7-yl}-N-{[2-(cyclopentyloxy)phenyl]methyl}-2-ethoxypyridine-3-carboxamide], for which the results for the IC50 in assay [1] (setting [5]) and in assay [2] (setting [4]) were 20 to 200 nM and less than 20 nM, respectively.

In the case of `CCOc1ncc(-c2ccn3nc(N)nc3c2)cc1C(=O)NCc1ccccc1OCC1CCC1` [Example 268, 5-{2-amino-[1,2,4]triazolo[1,5-a]pyridin-7-yl}-N-{[2-(cyclobutylmethoxy)phenyl]methyl}-2-ethoxypyridine-3-carboxamide], the IC50 was 20 to 200 nM in assay [1] (setting [5]) and less than 20 nM in assay [2] (setting [4]).

Consider `CCOc1ncc(-c2ccn3nc(N)nc3c2)cc1C(=O)NCCc1ccccc1Oc1ccccc1` [Example 269, 5-{2-amino-[1,2,4]triazolo[1,5-a]pyridin-7-yl}-2-ethoxy-N-[2-(2-phenoxyphenyl)ethyl]pyridine-3-carboxamide], for which the values for the IC50 in assay [1] (setting [5]) and in assay [2] (setting [4]) were 20 to 200 nM and less than 20 nM, respectively.

Take `CCOc1ncc(-c2ccn3nc(N)nc3c2)cc1C(=O)NCc1ccccc1S(=O)(=O)c1ccccc1CO` [Example 270, 5-{2-amino-[1,2,4]triazolo[1,5-a]pyridin-7-yl}-2-ethoxy-N-({2-[2-(hydroxymethyl)benzenesulfonyl]phenyl}methyl)pyridine-3-carboxamide]: the IC50 in assay [1] (setting [5]) is 20 to 200 nM; in assay [2] (setting [4]) it was less than 20 nM.

In the case of `CCOc1ncc(-c2ccn3nc(N)nc3c2)cc1C(=O)NCc1ccccc1OC(F)F` [Example 271, 5-{2-amino-[1,2,4]triazolo[1,5-a]pyridin-7-yl}-N-{[2-(difluoromethoxy)phenyl]methyl}-2-ethoxypyridine-3-carboxamide], the IC50 in assay [1] (setting [6]) was greater than 200 nM; in assay [2] (setting [7]) it was 20 to 200 nM.

On to `CCOc1ncc(-c2ccn3nc(N)nc3c2)cc1C(=O)NCc1ccccc1OCC1CC1` [Example 272, 5-{2-amino-[1,2,4]triazolo[1,5-a]pyridin-7-yl}-N-{[2-(cyclopropylmethoxy)phenyl]methyl}-2-ethoxypyridine-3-carboxamide], for which the values for the IC50 in assay [1] (setting [5]) and in assay [2] (setting [4]) were 20 to 200 nM and less than 20 nM, respectively.
